Columns and labels:
Test in all cases: Antimicrobial bioassay, inhibition zone
Format in all cases: cell-based
S. aureus = conditions: Staphylococcus aureus; extracts 5 mg/L; Imipenem 10 μg; mean of nine replicate plates
Description: (§1) Each of the mean measurements was obtained from the average of nine replicate plates. The test solution positive control was 10 μg Imipenem. Three Curcuma longa extracts (5 mg/L) were prepared from ethanolic rhizome extracts as well as the control.

Bacillus sp. = conditions: extracts 5 mg/L, Imipenem 10 μg, mean of nine replicate plates
Description: as §1

E. coli = conditions: Escherichia coli; extracts 5 mg/L; Imipenem 10 μg; mean of nine replicate plates
Description: as §1

MRSA = conditions: Staphylococcus aureus, extracts 5 mg/L, Imipenem 10 μg, mean of nine replicate plates
Description: as §1

Which zone of inhibition at 10 µg/disc (S. aureus) does the source give for `C[C@@H](O)[C@H]1C(=O)N2C(C(=O)O)=C(SCCN=CN)C[C@H]12` [Imipenem] here?
The zone of inhibition at 10 µg/disc was 18 mm.

What about the zone of inhibition at 10 µg/disc (Bacillus sp.) of the same molecule?
Its zone of inhibition at 10 µg/disc is 19 mm.

And the zone of inhibition at 10 µg/disc (E. coli)?
The zone of inhibition at 10 µg/disc was 20 mm.

What about the zone of inhibition at 10 µg/disc (MRSA) of the same molecule?
Its zone of inhibition at 10 µg/disc is 25 mm.

Source: patent publication US12083156B1, “Extracts derived from laser-irradiated rhizome of curcuma longa having enhanced antimicrobial activity” (KING FAISAL UNIVERSITY, priority 2023, dated 2024)
